Values after ≈ are worked out from the molar mass of the structure shown. Where two headings read alike, the source gives them in different places.
Key:
ECF FolT2 transporter = settings: cited from earlier work
ECF FolT transporter = assay: Bacterial (whole-cell) folate uptake assay in L. casei; settings: for Inhibition at 200 μM: folate import
Experimental: The OD600 was measured in a Nanodrop 2000c spectrophotometer (Thermo Fisher Scientific, Waltham, MA, USA) using half-micro cuvettes. The culture was diluted to OD600 = 0.06 in 25 mL and grown under the same conditions as before for 16 h. The new overnight culture was diluted to OD600 = 0.4 in 25 mL MRS medium and regrown in a 50 mL reaction tube for 2 h under the same conditions. The culture was subsequently centrifuged, washed with 50 mL PBS (50 mM, pH 7.4), centrifuged again, and resuspended in citrate buffer (20 mM, pH 6, 2% D-Glucose, 8 g/L NaCl, 0.2 g/L KCl) while adjusting the OD600 to 0.5. Then, 185 μL of this cell suspension was subsequently distributed on an opaque MultiScreen HTS Filter Plate-GV (Merck KGaA, Darmstadt, Germany). For each plate, two wells containing buffer for blank determination were included. A stock solution of compounds in DMSO (10 μL) was added to the wells and mixed (final DMSO conc. = 5%), followed by a preincubation at RT for 10 min. The solubility of the compounds in citrate buffer was verified in 96-well plates. Poorly soluble compounds were tested at the highest possible concentration. In addition, for each plate, four negative controls containing DMSO instead of inhibitor and a positive control were included. Tritium-labeled folic acid (Moravek Biochemicals, Brea, CA, USA) (5 μL, 2 μM, radioactivity was adjusted to 12.7 Ci/mmol using unlabeled folic acid) was added to the wells leading to a final concentration of 50 nM. The solutions were mixed (final volume 200 μL) as before, and the plate was incubated in a preheated incubator at 30 °C for 30 min. The plate was covered with sealing tape during the incubation steps to avoid evaporation. To stop the reaction, the liquid in the filter plates was removed from the cells by centrifugation (3 min at 1500× g). Subsequently, the cells were washed twice with PBS (10 mM, pH 7.2), followed by centrifugation steps (3 and 5 min at 1500× g). After removal of the underdrain, residual liquid on the bottom of the filters was removed using lint-free paper towels and the plate was dried at 50 °C in the incubator. After 10 min, 30 μL of liquid scintillating fluid was added into each well, the plate was covered with sealing tape and gently vortexed for 5 min. Relative radioactivity was determined for 1 min each well in a Wallac MicroBeta TriLux BetaCounter (Perkin Elmer, Waltham, MA, USA). […] Counts were averaged and after subtraction of the blank, the percentage of inhibition was determined by the following formula: Inh. %=100-x inhibitor/x negative control×100 The data were plotted including standard deviations. IC50 values were determined by plotting percentages of inhibition against the related concentrations and fitting the Origin standard function “Hill1” to the data. The KM was determined by plotting the relative radioactivity against the folic acid concentration and fitting the Origin standard function “Hyperbl” to the data.

[1] = test system: Streptococcus pneumoniae DSM-20566; assay: Antibacterial testing (MIC); assay type: cell-based; settings: DSM20566; Streptococcus pneumoniae DSM-20566, auxotrophic
Experimental: (§1) Figure S12. Screening a broad library (4−22) against ECF FolT2 transporter in the L. casei bacterial assay. Compou nds colored i n blue s howed inhibiti on bi gger than 20% when tested at 500 µ M.
(§2) Compounds were prepared as DMSO stocks a nd minimum inhibitory concentrations (MIC) were determined as de-scribed elsewhere. Bacteria were handled according to standard procedures and w ere obtained from the Ger man Col-lection of M icroorganisms and Cell Cultures (DSMZ) or were part of our interna l strain collection. In brief, bacterial cultures were diluted in Tryptic Soy Broth (TSB; 1.7% pepto ne casein, 0.3% peptone soymeal, 0.25% glucose, 0.5% NaCl, 0.25% K2HPO4; pH 7.3) or Müller– Hinton br oth (0.2% beef infusion solids, 1.75% casein hydr olysate, 0.15% starch, pH 7.4) to achieve a final inoculum of approximately 10 4 to 105 cfu/mL. Compou nd s were tested in serial dilution (0.06– […]
(§3) Organisms FolT EcfT EcfA1 EcfA2 Figure S13:
(§4) Lactobacillus delbrueckii A0A061BSU4 Q1GBJ0 Q1GBI9 numbers of the […]
(§5) Lactobacillus casei transporter (FolT,

[2] = test system: Staphylococcus aureus str. Newman; assay: Antibacterial testing (MIC); assay type: cell-based; settings: not auxotrophic
Experimental: as §1, §2, §3, §4, §5

[3] = test system: Streptococcus pneumoniae DSM-11865 (PRSP); assay: Antibacterial testing (MIC); assay type: cell-based; settings: auxotrophic
Experimental: as §1, §2, §3, §4, §5

[4] = Solubility of the compounds in citrate buffer (assay conditions); assay type: physicochemical
Experimental: The data were analyzed by using OriginPro 2018G (OriginLab Corporation, Northampton, MA, USA).

O=C(O)c1cc(OCc2cccc3ccccc23)ccc1O [Compound 1, reference compound]
IC50 (ECF FolT2 transporter; uptake into proteoliposomes, ECF FolT2 from L. delbrueckii): 282 ± 108 µM

O=C(O)CNCc1ccc(-c2ccc(Cl)cc2)o1 [Compound 2]
inhibition of folic acid uptake: inactive up to (ECF FolT transporter; bacterial uptake assay L. casei): > 1.2 mM | IC50 (ECF FolT2 transporter; proteoliposome uptake (in vitro assay, L. delbrueckii)): > 1200 µM

O=C(O)c1cccc(NCc2ccc(-c3ccc(Cl)cc3)o2)c1 [Compound 3]
MIC [1]: 21 µg/mL (≈ 64.1 µM) | MIC [2]: 23 µg/mL (≈ 70.2 µM) | MIC [3]: 10 µg/mL (≈ 30.5 µM) | Inhibition at 200 μM (ECF FolT transporter; L. casei based uptake assay): 43% (IC50 = 204 ± 22 μM) | IC50 (ECF FolT transporter; bacterial uptake assay, L. casei, 50 nM radiolabeled folic acid): 204 ± 22 µM

O=C(O)c1ccccc1NCc1ccc(-c2ccc(Cl)cc2)o1 [Compound 23]
Inhibition at 50 µM (ECF FolT transporter; 50 µM (not soluble above 50 μM), L. casei based uptake assay): 11% at 50 µM | solubility under the conditions of the assay [4]: insoluble | solubility ([4]; citrate buffer with 5% DMSO, 96-well plates, pH 6, aqueous with cosolvent or surfactant or cyclodextrin, kinetic from dmso stock, citrate buffer, read-out: solubility limit (not soluble above)): ≤ 50 µM

O=C(O)c1ccc(NCc2ccc(-c3ccc(Cl)cc3)o2)cc1 [Compound 24]
Inhibition at 500 μM (ECF FolT transporter; 500 μM, L. casei based uptake assay): n.i at 500 μM (n.i. = no inhibition (if inhibition < 10%)) | inhibition (ECF FolT transporter; up to 500 μM, L. casei uptake assay): no inhibition

O=C(O)c1cccc(NCc2ccc(-c3cccc(Cl)c3)o2)c1 [Compound 25]
Inhibition at 200 μM (ECF FolT transporter; L. casei based uptake assay): 41%

O=C(O)c1cccc(NCc2ccc(-c3ccccc3Cl)o2)c1 [Compound 26]
Inhibition at 200 μM (ECF FolT transporter; L. casei based uptake assay): 36%

O=C(O)c1cccc(NCc2cc(-c3ccc(Cl)cc3)co2)c1 [Compound 27]
Inhibition at 200 μM (ECF FolT transporter; L. casei based uptake assay): 8%

Nc1nc(=O)c2nc(CNc3ccc(C(=O)N[C@@H](CCC(=O)O)C(=O)O)cc3)cnc2[nH]1 [folic acid]
Km (ECF FolT transporter; read-out: KM of folate uptake, substrate-dependent folate uptake in L. casei, PBS (50 mM, pH 7.4, 2% Glucose)): 0.049 µM | Vmax of folate uptake (ECF FolT transporter; substrate-dependent folate uptake in L. casei, PBS (50 mM, pH 7.4, 2% Glucose)): 83 (±2) counts per minute (cpm)
